What is called IC50 is the point on the concentration scale where inhibition reaches its midpoint.

The structures appear in SMILES notation.

The nature of test [1]: Inhibition of TEL-FLT3 D835V mutant (unknown origin) expressed in mouse BaF3 cells assessed as antiproliferative activity incubated for 72 hrs by CCK8 assay.
Test [2] in a line: Inhibition of FLT3 ITD/D835V double mutant (unknown origin) expressed in mouse BaF3 cells assessed as antiproliferative activity incubated for 72 hrs by CCK8 assay. On the technique in general: Tetrazolium assays rely on reduction of a dye to a coloured formazan, in cell work by metabolically active cells.
The nature of test [3]: Inhibition of FLT3 ITD mutant (unknown origin) expressed in mouse BaF3 cells assessed as antiproliferative activity incubated for 72 hrs by CCK8 assay.

`Cc1c(NC(=O)CCN2CCCC2)c[nH]c1/C=C1\C(=O)Nc2ccc(F)cc21`: the results for the IC50 in test [1], in test [2] and in test [3] were 30 nM, 27 nM and 13 nM, respectively.

(Values after BindingDB's records for doi:10.1021/acs.jmedchem.0c02247 (Nanjing University of Chinese Medicine, 2021).)
